Laboratory results as given in the supplement of paper PMC8617591.

Tests used:
[1] = test system: Mycobacterium tuberculosis Erdman (autoluminescent); assay: total FIC90 (Loewe) at 90% inhibition, three-drug combination (log2); higher = more antagonistic
Protocol: (§1)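 DiaMOND equipotent three-drug combination dose responses (10 doses, 1.5- or 2-fold spacing, centred on IC90) against autoluminescent M. tuberculosis Erdman in 8 in vitro models. Read-out is OD600, or luminescence for the intracellular and dormancy models, normalised to untreated wells. Hill-fit Einf, AUC25 and GRinf are potency metrics; FIC50 and FIC90 are total Loewe fractional inhibitory concentrations as log2 (negative = synergy).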

[2] = test system: Mycobacterium tuberculosis Erdman (autoluminescent); assay: GRinf, maximum normalised growth rate inhibition (three-drug combination) (unitless (-1 to 1)); higher = less effect (negative = killing)
Protocol: as §1

[3] = test system: Mycobacterium tuberculosis Erdman (autoluminescent); assay: Einf, fitted maximum growth inhibition of three-drug combination (fraction); higher = stronger maximal inhibition
Protocol: as §1

[4] = test system: Mycobacterium tuberculosis Erdman (autoluminescent); assay: total FIC50 (Loewe) at 50% inhibition, three-drug combination (log2); higher = more antagonistic
Protocol: as §1

[5] = test system: Mycobacterium tuberculosis Erdman (autoluminescent); assay: AUC25, normalised area under dose response up to IC25 (three-drug combination) (fraction (0-1)); higher = more potent at low dose
Protocol: as §1

COc1nc2ccc(Br)cc2cc1[C@@H](c1ccccc1)[C@@](O)(CCN(C)C)c1cccc2ccccc12 [bedaquiline] + CC(C)/N=c1\cc2n(-c3ccc(Cl)cc3)c3ccccc3nc-2cc1Nc1ccc(Cl)cc1 [clofazimine] + O=[N+]([O-])c1cn2c(n1)OC[C@@H](OCc1ccc(OC(F)(F)F)cc1)C2 [pretomanid]
Conditions	AUC25, [5]	Einf, [3]	GRinf, [2]	total FIC50, [4]	total FIC90, [1]
in vitro model: acidic pH 5.7, time point: constant (~7 days, model-specific)	0.106	0.809	-0.477	0.502	–
in vitro model: acidic pH 5.7, time point: terminal (~4-5 doublings, model-specific)	0.0881	0.968	-0.411	0.438	0.703
in vitro model: intracellular J774, time point: constant = terminal	–	0.986	-0.307	–	0.235

Conditions	AUC25, [5]	Einf, [3]	GRinf, [2]	total FIC50, [4]	total FIC90, [1]
in vitro model: butyrate, time point: constant (~7 days, model-specific)	0.0748	0.948	-0.105	0.0794	-0.148
in vitro model: butyrate, time point: terminal (~4-5 doublings, model-specific)	0.0598	0.982	-0.123	0.0162	-0.232
in vitro model: cholesterol 0.05 mM, time point: constant (~7 days, model-specific)	0.101	0.724	-0.148	0.099	–
in vitro model: cholesterol 0.05 mM, time point: terminal (~4-5 doublings, model-specific)	0.111	0.938	-0.208	0.567	0.307
in vitro model: cholesterol-high 0.2 mM, time point: constant (~7 days, model-specific)	0.0786	0.94	-0.226	0.161	0.852
in vitro model: cholesterol-high 0.2 mM, time point: terminal (~4-5 doublings, model-specific)	0.0851	1	-0.559	0.209	0.0625
in vitro model: dormancy (butyrate + nitrate, low O2), time point: constant (~7 days, model-specific)	0.0645	0.942	0.201	-0.378	-1.22
in vitro model: dormancy (butyrate + nitrate, low O2), time point: terminal (~4-5 doublings, model-specific)	0.077	0.996	-0.219	-1.08	-1.15
in vitro model: standard 7H9 glycerol, time point: constant = terminal	0.0956	0.967	-0.0799	-0.29	-0.495
in vitro model: valerate, time point: constant (~7 days, model-specific)	0.119	0.91	-0.0979	0.482	-0.269
in vitro model: valerate, time point: terminal (~4-5 doublings, model-specific)	0.0785	0.954	-0.0498	0.323	0.514

COc1nc2ccc(Br)cc2cc1[C@@H](c1ccccc1)[C@@](O)(CCN(C)C)c1cccc2ccccc12 [bedaquiline] + CC[C@@H](CO)NCCN[C@@H](CC)CO [ethambutol] + CC(=O)NC[C@H]1CN(c2ccc(N3CCOCC3)c(F)c2)C(=O)O1 [linezolid]
Conditions	AUC25, [5]	Einf, [3]	GRinf, [2]	total FIC50, [4]	total FIC90, [1]
in vitro model: acidic pH 5.7, time point: constant (~7 days, model-specific)	0.0748	0.822	-0.403	-0.0157	–
in vitro model: acidic pH 5.7, time point: terminal (~4-5 doublings, model-specific)	0.0941	0.977	-0.395	0.509	0.711
in vitro model: intracellular J774, time point: constant = terminal	–	0.922	-0.379	–	0.819

Conditions	AUC25, [5]	Einf, [3]	GRinf, [2]	total FIC50, [4]	total FIC90, [1]
in vitro model: butyrate, time point: constant (~7 days, model-specific)	0.0774	0.931	-0.0747	0.429	–
in vitro model: butyrate, time point: terminal (~4-5 doublings, model-specific)	0.0539	0.964	-0.0521	0.371	-0.223
in vitro model: cholesterol 0.05 mM, time point: constant (~7 days, model-specific)	0.151	0.783	-0.458	0.52	–
in vitro model: cholesterol 0.05 mM, time point: terminal (~4-5 doublings, model-specific)	0.159	0.946	-0.703	8.47	–
in vitro model: cholesterol-high 0.2 mM, time point: constant (~7 days, model-specific)	0.0976	0.984	-1	0.98	–
in vitro model: cholesterol-high 0.2 mM, time point: terminal (~4-5 doublings, model-specific)	0.114	1	-0.946	0.45	1.37
in vitro model: dormancy (butyrate + nitrate, low O2), time point: constant (~7 days, model-specific)	0.124	0.886	0.486	1.37	–
in vitro model: dormancy (butyrate + nitrate, low O2), time point: terminal (~4-5 doublings, model-specific)	0.127	0.989	-0.414	0.241	0.872
in vitro model: standard 7H9 glycerol, time point: constant = terminal	0.0754	0.943	-0.0326	0.387	–
in vitro model: valerate, time point: constant (~7 days, model-specific)	0.106	0.915	-0.161	0.715	–
in vitro model: valerate, time point: terminal (~4-5 doublings, model-specific)	0.0559	0.954	-0.121	0.85	-0.19
